From patent publication US8669360B2, “Methods of converting amorphous drug substance into crystalline form” (Boston Scientific Scimed, Inc., priority 2011, dated 2014)

Columns and labels:
[1] = Comparative aqueous solubility of amorphous and crystalline everolimus (FIG. 3); format: physicochemical; conditions: aqueous solubility at body temperature (37° C.)
Excerpt: FIG. 3 is a graph showing the relative water solubilities of the amorphous and crystalline forms of everolimus.

[2] = Approximate solubility of amorphous everolimus in solvents; format: physicochemical; conditions: room temperature
Description: Approximate solubilities of amorphous everolimus were determined by adding the drug gradually with stirring at room temperature to a fixed volume of the solvent until solid remained visible.

Structure (SMILES)	Solubility of crystalline everolimus, times lower than that of amorphous everolimus [1]	Amorphous Everolimus Solubilities ([2]; solvent ACN/water 3:2 v/v) [mg/mL]	Amorphous Everolimus Solubilities ([2]; solvent ACN) [mg/mL]	Amorphous Everolimus Solubilities ([2]; solvent Acetone) [mg/mL]	Amorphous Everolimus Solubilities ([2]; solvent DCM) [mg/mL]	Amorphous Everolimus Solubilities ([2]; solvent DMF/DCM w/w) [mg/mL]	Amorphous Everolimus Solubilities ([2]; solvent DMF/EtOAc w/w) [mg/mL]	Amorphous Everolimus Solubilities ([2]; solvent DMF/THF w/w) [mg/mL]	Amorphous Everolimus Solubilities ([2]; solvent DMF) [mg/mL]	Amorphous Everolimus Solubilities ([2]; solvent EtOH) [mg/mL]	Amorphous Everolimus Solubilities ([2]; solvent IPA) [mg/mL]	Amorphous Everolimus Solubilities ([2]; solvent MEK) [mg/mL]	Amorphous Everolimus Solubilities ([2]; solvent MTBE) [mg/mL]	Amorphous Everolimus Solubilities ([2]; solvent THF) [mg/mL]	Amorphous Everolimus Solubilities ([2]; solvent ethyl acetate) [mg/mL]	Amorphous Everolimus Solubilities ([2]; solvent m-xylene) [mg/mL]	Amorphous Everolimus Solubilities ([2]; solvent n-heptane) [mg/mL]	Amorphous Everolimus Solubilities ([2]; solvent p-dioxane) [mg/mL]	Amorphous Everolimus Solubilities ([2]; solvent water) [mg/mL]
CO[C@H]1C[C@@H]2CC[C@@H](C)[C@@](O)(O2)C(=O)C(=O)N2CCCC[C@H]2C(=O)O[C@H]([C@H](C)C[C@@H]2CC[C@@H](OCCO)[C@H](OC)C2)CC(=O)[C@H](C)/C=C(\C)[C@@H](O)[C@@H](OC)C(=O)[C@H](C)C[C@H](C)/C=C/C=C/C=C/1C [crystalline everolimus, 40-O-(2-Hydroxyethyl)rapamycin]	about 25 times																		
CO[C@H]1C[C@@H]2CC[C@@H](C)[C@@](O)(O2)C(=O)C(=O)N2CCCC[C@H]2C(=O)O[C@H]([C@H](C)C[C@@H]2CC[C@@H](OCCO)[C@H](OC)C2)CC(=O)[C@H](C)/C=C(\C)[C@@H](O)[C@@H](OC)C(=O)[C@H](C)C[C@H](C)/C=C/C=C/C=C/1C [Amorphous Everolimus, 40-O-(2-Hydroxyethyl)rapamycin]		~52	~100	~100	~46	~142	~119	~112	~49	~100	~15	~70	~62	~67	~100	~76	~0.5	~58	~0.1
